Results on 72 molecules are retold here after patent US20250090540A1, “PI3K-ALPHA INHIBITORS AND METHODS OF USE THEREOF” (Relay Therapeutics, Inc., priority 2021, published 2025).

The target of the first assay is H1047R PIK3CA enzyme (Homo sapiens, UniProt P42336, H1047R). As to the kind of experiment: ADP-Glo Biochemical PIK3CA Kinase Assay.
Chain of H1047R PIK3CA enzyme (P42336 whole entry H1047R): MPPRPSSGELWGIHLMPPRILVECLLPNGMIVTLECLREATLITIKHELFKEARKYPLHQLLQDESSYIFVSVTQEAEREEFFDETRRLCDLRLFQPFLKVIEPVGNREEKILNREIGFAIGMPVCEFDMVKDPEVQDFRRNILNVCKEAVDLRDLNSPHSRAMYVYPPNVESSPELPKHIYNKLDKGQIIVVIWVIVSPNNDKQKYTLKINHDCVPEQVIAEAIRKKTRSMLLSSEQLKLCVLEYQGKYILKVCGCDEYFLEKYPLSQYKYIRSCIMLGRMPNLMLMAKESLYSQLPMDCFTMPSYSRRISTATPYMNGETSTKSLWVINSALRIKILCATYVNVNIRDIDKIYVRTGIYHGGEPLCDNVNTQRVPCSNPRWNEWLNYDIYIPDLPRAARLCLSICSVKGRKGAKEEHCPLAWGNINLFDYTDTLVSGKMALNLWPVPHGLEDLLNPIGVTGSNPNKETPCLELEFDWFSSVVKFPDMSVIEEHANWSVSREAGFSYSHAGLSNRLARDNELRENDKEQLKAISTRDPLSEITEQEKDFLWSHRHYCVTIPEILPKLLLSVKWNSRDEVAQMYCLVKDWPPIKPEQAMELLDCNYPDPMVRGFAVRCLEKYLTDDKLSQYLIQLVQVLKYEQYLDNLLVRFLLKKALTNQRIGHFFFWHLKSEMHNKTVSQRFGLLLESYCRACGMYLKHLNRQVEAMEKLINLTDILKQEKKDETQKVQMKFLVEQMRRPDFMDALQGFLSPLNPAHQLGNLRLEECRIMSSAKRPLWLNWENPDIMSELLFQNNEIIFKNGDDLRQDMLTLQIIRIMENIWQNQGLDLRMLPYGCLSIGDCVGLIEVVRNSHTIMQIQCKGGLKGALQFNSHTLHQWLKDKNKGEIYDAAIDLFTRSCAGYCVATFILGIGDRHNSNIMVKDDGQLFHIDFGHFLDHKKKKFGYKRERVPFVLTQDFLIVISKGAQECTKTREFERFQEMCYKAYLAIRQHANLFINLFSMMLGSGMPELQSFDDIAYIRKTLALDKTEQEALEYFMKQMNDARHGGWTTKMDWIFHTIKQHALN
Chain of H1047R PIK3CA enzyme (P27986 whole entry partner): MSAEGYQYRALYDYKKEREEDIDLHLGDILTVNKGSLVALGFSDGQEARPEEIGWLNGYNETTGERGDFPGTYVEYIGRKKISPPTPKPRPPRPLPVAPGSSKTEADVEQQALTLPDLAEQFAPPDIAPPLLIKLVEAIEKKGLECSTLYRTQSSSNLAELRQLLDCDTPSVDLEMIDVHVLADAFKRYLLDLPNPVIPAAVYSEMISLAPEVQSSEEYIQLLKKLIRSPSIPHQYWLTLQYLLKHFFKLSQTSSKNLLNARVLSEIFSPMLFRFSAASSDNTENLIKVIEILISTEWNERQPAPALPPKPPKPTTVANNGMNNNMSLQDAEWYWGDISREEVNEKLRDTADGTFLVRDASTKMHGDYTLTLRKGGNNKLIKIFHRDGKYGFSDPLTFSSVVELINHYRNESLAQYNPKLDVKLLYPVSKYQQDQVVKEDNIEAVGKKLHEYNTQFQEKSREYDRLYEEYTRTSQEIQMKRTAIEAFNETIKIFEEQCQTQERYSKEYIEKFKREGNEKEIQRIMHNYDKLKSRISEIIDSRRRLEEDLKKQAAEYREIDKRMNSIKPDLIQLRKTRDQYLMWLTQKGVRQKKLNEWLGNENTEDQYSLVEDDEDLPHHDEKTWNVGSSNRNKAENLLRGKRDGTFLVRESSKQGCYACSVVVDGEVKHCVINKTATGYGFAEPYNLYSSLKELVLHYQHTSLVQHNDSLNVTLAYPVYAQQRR
Conditions: not given
The method, then: Compounds to be assayed were plated in 16 doses of 1:2 serial dilutions (20 nL volume each well) on a 1536-well plate, and the plate warmed to room temperature. PIK3CA enzyme (e.g. H1047R, E542K, E545K, or wild-type) (1 μL of 2 nM solution in Enzyme Assay Buffer (comprising 50 mM HEPES pH 7.4, 50 mM NaCl, 6 mM MgCl2, 5 mM DTT and 0.03% CHAPS)) was added and shaken for 10 seconds and preincubated for 30 minutes. To the well was added 1 μL of 200 μM ATP and 20 μM of diC8-PIP2 in Substrate Assay Buffer (50 mM HEPES pH7.4, 50 mM NaCl, 5 mM DTT and 0.03% CHAPS) to start the reaction, and the plate was shaken for 10 seconds, then spun briefly at 1500 rpm, and then incubated for 60 minutes at room temperature. The reaction was stopped by adding 2 μL of ADP-Glo reagent (Promega), and spinning briefly at 1500 rpm, and then incubating for 40 minutes. ADP-Glo Detection reagent (Promega) was added and the plate spun briefly at 1500 rpm, then incubated for 30 minutes.
As a reminder, the IC50 is the concentration that gives 50% inhibition. The low end stands for greater potency, the high end for weaker potency. Molecule `CNC(=O)c1cnc(Nc2ccccc2C)c(NS(=O)(=O)c2ccccc2)c1` [I-20] yielded an IC50 of 1 to 10 µM.

Molecule `CNC(=O)c1cnc(Nc2ccccc2C)c(NC(=O)Cc2cccnc2)c1` [I-250] displayed an IC50 of 10 to 100 µM.

Consider `CNC(=O)c1cnc(Nc2ccccc2C)c(NC(=O)c2cc(F)cc(S(N)(=O)=O)c2)c1` [I-389], for which the IC50 was 10 to 100 µM.

Take `CNC(=O)c1cnc(Nc2ccccc2C)c(NC(=O)c2ncn3ccccc23)c1` [I-48]: the IC50 fell in the range of 10 to 100 µM.

`CNC(=O)c1cnc(Nc2ccccc2C)c(NC(=O)[C@@H]2C[C@H]2c2ccccc2)c1` [I-165]: the IC50 was in the range of 10 to 100 µM.

The molecule `Cc1ccccc1NC(=O)c1cc(NC(=O)c2cc(F)cc(C(F)(F)F)c2)c(Nc2ccccc2C)cn1` [I-324] registered an IC50 of 10 to 100 µM.

With `CNC(=O)c1cnc(Nc2ccccc2C)c(NC(=O)c2csc(N)n2)c1` [I-243], the IC50 fell in the range of 10 to 100 µM.

For `CNC(=O)c1cnc(Nc2ccccc2C)c(NC(=O)c2n[nH]c3ccccc23)c1` [I-175], the IC50 is 10 to 100 µM.

The molecule `CNC(=O)c1cnc(Nc2ccc(C)cc2)c(NC(=O)c2csc3ccccc23)c1` [I-226] yielded an IC50 of 10 to 100 µM.

The molecule `Cc1ccccc1Nc1ncc(C(=O)Nc2cc[nH]c(=O)n2)cc1NC(=O)c1csc2ccccc12` [I-194] yielded an IC50 of 0.5 to 1 µM.

As to `Cc1ccccc1Nc1ncc(-c2cnn(C)c2)cc1NC(=O)c1cccc2nn(C)cc12` [I-112], the IC50 fell in the range of 10 to 100 µM.

With `CNC(=O)c1cnc(Nc2ccccc2C)c(NC(=O)c2csc3cc(C)ccc23)c1` [I-354], the IC50 was 1 to 10 µM.

`CC(=O)Nc1ccc(C(=O)Nc2cc(-c3cnn(C)c3)cnc2Nc2ccccc2C)cc1` [I-114] came in with an IC50 of 10 to 100 µM.

In turn, `Cc1ccccc1N[C@H]1CCN(C(=O)C2(O)CC2)C[C@@H]1C(=O)Nc1cc(F)cc(C(F)(F)F)c1` (racemic) [I-228] had an IC50 of 10 to 100 µM.

For `O=C1CCCC(c2nc3c(F)cc(C(F)(F)F)cc3[nH]2)N1Cc1cc(F)ccc1Cl` (stereo not drawn) [I-815], the IC50 was in the range of 10 to 100 µM.

In turn, `CNC(=O)c1cnc(Nc2ccccc2C)c(NC(=O)Cc2cccc(Cl)c2)c1` [I-35] showed an IC50 of 10 to 100 µM.

The molecule `CNC(=O)c1cnc(Nc2ccnc(C)c2)c(NC(=O)c2cc(F)cc(C(F)(F)F)c2)c1` [I-200] displayed an IC50 of 10 to 100 µM.

Take `CNC(=O)c1cnc(Nc2cccc(F)c2)c(N)c1` [I-32]: the IC50 is 10 to 100 µM.

Turning to `CNC(=O)c1cnc(Nc2ccccc2C)c(NC(=O)c2ccccc2)c1` [I-43], the IC50 fell in the range of 10 to 100 µM.

`CNC(=O)c1cnc(N2CC3CCCN3CC2C)c(NC(=O)c2cc(F)cc(C(F)(F)F)c2)c1` (stereo not drawn) [I-202] returned an IC50 of 10 to 100 µM.

The molecule `Cc1ccccc1Nc1ncc(-c2cnn(C)c2)cc1NC(=O)c1ccccc1C(F)(F)F` [I-107] came in with an IC50 of 10 to 100 µM.

Molecule `CNC(=O)c1cnc(Nc2ccccc2C)c(NC(=O)c2csc(C(F)(F)F)n2)c1` [I-241] returned an IC50 of 10 to 100 µM.

Regarding `Cc1ccccc1Nc1ncc(NC(=O)CC#N)cc1NC(=O)c1cc(F)cc(C(F)(F)F)c1` [I-154], the IC50 lay within 1 to 10 µM.

The molecule `CNC(=O)c1cnc(Nc2ccccc2C)c(NC(=O)c2ccc3c(n2)CCCN3)c1` [I-205] showed a half-maximal inhibitory concentration (IC50) of 10 to 100 µM.

`CNC(=O)c1cnc(Nc2ccccc2C)c(NC(=O)[C@@H](N)C2CCCCC2)c1` (stereo in doubt) [I-159] showed an IC50 of 10 to 100 µM.

`CNC(=O)c1cnc(N2CCNc3ccccc32)c(NC(=O)c2csc3ccccc23)c1` [I-244]: the IC50 was in the range of 10 to 100 µM.

Take `Cc1ccccc1Nc1ncc(C(=O)Nc2cncnc2)cc1NC(=O)c1cc(F)cc(C(F)(F)F)c1` [I-265]: the IC50 was in the range of 0.5 to 1 µM.

`CNC(=O)c1cnc(Nc2ccccc2C)c(NC(=O)c2cc(F)cc(C3CC3)c2)c1` [I-188] displayed an IC50 of 1 to 10 µM.

With `Cc1ccccc1Nc1ncc(-c2cnn(C3CCNCC3)c2)cc1NC(=O)c1cc(F)cc(C(F)(F)F)c1` [I-91], the IC50 lay within 0.5 to 1 µM.

`CNC(=O)c1cnc(Nc2ncccc2C)c(NC(=O)c2cc(F)cc(C(F)(F)F)c2)c1` [I-269] gave an IC50 of 1 to 10 µM.

`Cc1ccccc1Nc1ncc(C(=O)N[C@@H]2CCN(C)C2)cc1NC(=O)c1cc(F)cc(C(F)(F)F)c1` (stereo in doubt) [I-64] registered an IC50 of 1 to 10 µM.

Turning to `Cc1ccccc1Nc1ncc(-c2cnn(C)c2)cc1NC(=O)c1cccc(C(F)(F)F)c1` [I-110], the IC50 is 1 to 10 µM.

The molecule `CC(C)(C)OC(=O)N1CCC(Nc2ncccc2NC(=O)c2csc3ccccc23)CC1` [I-151] gave an IC50 of 10 to 100 µM.

Consider `CNC(=O)c1cnc(Nc2ccccc2C)c(NC(=O)c2nc(SC)ncc2Cl)c1` [I-187], for which the IC50 lay in the range of 10 to 100 µM.

`Cc1ccccc1Nc1ncc(N2CC(N)C2)cc1NC(=O)c1cc(F)cc(C(F)(F)F)c1` [I-73] displayed an IC50 of 1 to 10 µM.

Take `Cc1cc(F)cc(C(=O)Nc2cc(-c3cnn(C)c3)cnc2Nc2ccccc2C)c1` [I-95]: the IC50 was 1 to 10 µM.

Molecule `Cc1ccccc1Nc1ncc(-c2cnn(C)c2)cc1NC(=O)c1cccc(S(C)(=O)=O)c1` [I-118] displayed an IC50 of 10 to 100 µM.

`CNC(=O)c1cnc(Nc2cccc(F)c2)c([N+](=O)[O-])c1` [I-25]: the IC50 was 10 to 100 µM.

In the case of `CNC(=O)c1cnc(Nc2ccccc2C)c(NC(=O)C2CCN(C(C)=O)CC2)c1` [I-163], the IC50 lay in the range of 10 to 100 µM.

In turn, `CNC(=O)c1cnc(N2CCc3ccccc32)c(NC(=O)c2cc(F)cc(C(F)(F)F)c2)c1` [I-37] had an IC50 of 10 to 100 µM.

The assay is the same for the next values; noted with them: ADP-Glo biochemical PIK3CA kinase assay.
For the molecule `CC(NC(=O)c1cnc(N)c(NC(=O)c2csc3ccccc23)c1)c1cn[nH]c1` (stereo not drawn) [I-690], the IC50 is 1 to 10 µM.

Consider `CNC(=O)c1cnc(Nc2ccccc2C)c(NC(=O)Cc2ccc(F)cc2C(F)(F)F)c1` [I-502], for which the IC50 lay within 10 to 100 µM.

Regarding `O=C(Nc1ccn2cnnc2c1Nc1ccccc1Cl)c1cc(F)cc(C(F)(F)F)c1` [I-794], the concentration for half-maximal inhibition (IC50) lay within 10 to 100 µM.

`Cc1ccccc1Nc1ncc(C(=O)NCc2cn(C)nc2C)cc1NC(=O)c1cc(F)cc(C(F)(F)F)c1` [I-746] registered an IC50 of 1 to 10 µM.

As for `CNC(=O)c1cnc(Nc2ccccc2C)c(NC(=O)c2cccc(OC)c2F)c1` [I-454], the IC50 is 10 to 100 µM.

Molecule `Cc1ccccc1CNc1cccc(=O)n1Cc1ccccc1C` [I-433] showed an IC50 of 10 to 100 µM.

`CNC(=O)c1cnc(Nc2ccccc2C)c(NC(=O)c2c[nH]c3cccc(Cl)c23)c1` [I-528] came in with an IC50 of 10 to 100 µM.

`Cc1ccccc1Nc1ncc(C(=O)Nc2ncnn2C)cc1NC(=O)c1csc2ccccc12` [I-606] gave an IC50 of 1 to 10 µM.

In the case of `CNC(=O)c1cnc(Nc2ccccc2C)c(NC(=O)c2cc(F)ccc2OC(F)(F)F)c1` [I-495], the IC50 fell in the range of 10 to 100 µM.

In turn, `CNC(=O)c1cnc(Nc2ccccc2C)c(NC(=O)c2ccc(F)c(F)c2)c1` [I-722] came in with an IC50 of 1 to 10 µM.

For the molecule `CNC(=O)c1cnc(Nc2ccccc2C)c(NC(=O)c2ccnc3ccc(Br)cc23)c1` [I-444], the IC50 was 10 to 100 µM.

`Nc1cc(-c2ccc(F)cc2)nn1-c1nc2ccccc2[nH]1` [I-792] gave an IC50 of 1 to 10 µM.

Take `CNC(=O)c1cnc(Nc2ccc3cccnc3c2)c(NC(=O)c2csc3ccccc23)c1` [I-740]: the IC50 fell in the range of 1 to 10 µM.

In turn, `CNC(=O)c1cnc(Nc2ccccc2C)c(NC(=O)c2cn3c(F)cccc3n2)c1` [I-422] returned an IC50 of 10 to 100 µM.

For `CNC(=O)c1cnc(Nc2ccccc2C)c(NC(=O)Cc2noc3ccccc23)c1` [I-651], the IC50 lay in the range of 1 to 10 µM.

`CNC(=O)c1cnc(Nc2ccc3cnn(C)c3c2)c(NC(=O)c2csc3ccccc23)c1` [I-736]: the IC50 lay in the range of 1 to 10 µM.

`CNC(=O)c1cnc(Nc2ccccc2C)c(NC(=O)c2cccc3c2OC(C)(C)C3)c1` [I-529] displayed an IC50 of 10 to 100 µM.

Molecule `CNC(=O)c1cnc(N2CCC[C@@H]3CCC[C@@H]32)c(NC(=O)c2csc3ccccc23)c1` (single isomer, unassigned) [I-633] yielded an IC50 of 1 to 10 µM.

`CNC(=O)c1cnc(Nc2ccccc2C)c(NC(=O)c2cccc(C#N)c2Cl)c1` [I-466] had an IC50 of 10 to 100 µM.

For `Cc1ccccc1Nc1ncc(C(=O)N2CC(C(=O)O)C2)cc1NC(=O)c1csc2ccccc12` [I-600], the IC50 lay within 1 to 10 µM.

Take `CNC(=O)c1cnc(Nc2c3c(nn2C)CCC3)c(NC(=O)c2csc3ccccc23)c1` [I-743]: the IC50 was 1 to 10 µM.

For `CNC(=O)c1cnc(Nc2cccc(OC)c2)c(NC(=O)c2csc3ccccc23)c1` [I-401], the IC50 was in the range of 1 to 10 µM.

`CNC(=O)c1cnc(Nc2ccccc2C)c(NC(=O)c2cccc3ccoc23)c1` [I-494] registered an IC50 of 10 to 100 µM.

As to `CNC(=O)c1cnc(Nc2ccccc2C)c(NC(=O)Cc2ccc3ncccc3c2)c1` [I-558], the IC50 is 1 to 10 µM.

In the case of `CNC(=O)c1cnc(Nc2ccccc2C)c(NC(=O)c2ccc(Br)c3cccnc23)c1` [I-516], the IC50 was 10 to 100 µM.

Regarding `CNC(=O)c1cnc(Nc2ccccc2C)c(NC(=O)c2cc3cccc(F)c3s2)c1` [I-442], the IC50 lay in the range of 10 to 100 µM.

`Nc1c2c(nn1C(=O)c1cc(F)cc(C(F)(F)F)c1)CCCC2` [I-778]: the IC50 fell in the range of 10 to 100 µM.

In turn, `Cc1ccccc1Nc1ncc(C(=O)N2CCC(F)C2)cc1NC(=O)c1csc2ccccc12` (stereo not drawn) [I-623] showed an IC50 of 0.5 to 1 µM.

Regarding `CNC(=O)c1cnc(Nc2ccccc2C)c(NC(=O)c2cc(C)nn2C(F)F)c1` [I-450], the IC50 is 10 to 100 µM.

`CCn1nccc1Nc1ncc(C(=O)NC)cc1NC(=O)c1csc2ccccc12` [I-735] displayed an IC50 of 1 to 10 µM.

`CNC(=O)c1cnc(Nc2ccccc2C)c(NC(=O)c2cc(Br)cc(C(C)C)c2)c1` [I-476] displayed an IC50 of 10 to 100 µM.

`CNC(=O)c1cnc(Nc2ccccc2C)c(NC(=O)c2cc(C)cc3cccnc23)c1` [I-419] registered an IC50 of 1 to 10 µM.
